Test results: PubChem BioAssay (NCI)
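Compound exposure: 48 hours, 5 concentrations, 96-well plates. Here, GI50 denotes the concentration required for 50% inhibition of growth. TGI denotes the concentration required for complete inhibition of growth.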

Key:
Assay in all cases: DTP human tumour cell line panel, 48 h
[1] = tested on: 786-0 renal
[2] = tested on: SF-268 CNS
[3] = tested on: COLO 205 colon
[4] = tested on: CAKI-1 renal
[5] = tested on: UACC-257 melanoma
[6] = tested on: MALME-3M melanoma
[7] = tested on: SW-620 colon
[8] = tested on: SNB-19 CNS
[9] = tested on: DU-145 prostate
[10] = tested on: LOX IMVI melanoma
[11] = tested on: PC-3 prostate
[12] = tested on: A549 NSCLC
[13] = tested on: CCRF-CEM leukemia
[14] = tested on: OVCAR-8 ovarian
[15] = tested on: OVCAR-5 ovarian
[16] = tested on: SK-MEL-28 melanoma
[17] = tested on: NCI-H23 lung
[18] = tested on: T-47D breast
[19] = tested on: BT-549 breast
[20] = tested on: SF-539 CNS
[21] = tested on: SK-MEL-2 melanoma
[22] = tested on: HCT-116 colon
[23] = tested on: NCI-H522 lung
[24] = tested on: SK-MEL-5 melanoma
[25] = tested on: MCF7 breast
[26] = tested on: KM12 colon
[27] = tested on: MDA-MB-231 breast
[28] = tested on: MDA-MB-435
[29] = tested on: RPMI-8226 leukemia
[30] = tested on: OVCAR-3 ovarian
[31] = tested on: IGROV1 ovarian
[32] = tested on: HCC-2998 colon
[33] = tested on: M14 melanoma
[34] = tested on: TK-10 renal
[35] = tested on: HL-60(TB) leukemia
[36] = tested on: SN12C renal
[37] = tested on: MOLT-4 leukemia
[38] = tested on: SNB-75 CNS
[39] = tested on: UACC-62 melanoma
[40] = tested on: HT29 colon
[41] = tested on: K-562 leukemia
[42] = tested on: SR leukemia
[43] = tested on: A498 renal
[44] = tested on: EKVX NSCLC
[45] = tested on: RXF 393 renal
[46] = tested on: HOP-92 NSCLC
[47] = tested on: NCI/ADR-RES ovarian
[48] = tested on: SF-295 CNS
[49] = tested on: OVCAR-4 ovarian

For `O=C1c2cccnc2C(=O)c2c1c(C(=O)OCCCN1CCOCC1)c1ccccn21`, the GI50 [1] was 0.0124 µM, the TGI [1] was 0.0403 µM and the GI50 [2] was < 0.01 µM. The TGI [2] was 10.7 µM, the GI50 [3] was 0.0553 µM and the TGI [3] was 0.308 µM. The GI50 [4] was < 0.01 µM, the TGI [4] was 0.0509 µM and the GI50 [5] was 0.0182 µM. For the same compound, the TGI [5] was 0.0758 µM, the GI50 [6] was 0.0125 µM and the TGI [6] was 1.71 µM. For the same compound, the GI50 [7] was < 0.01 µM, the TGI [7] was 1.75 µM and the GI50 [8] was < 0.01 µM. The TGI [8] was 4.13 µM, the GI50 [9] was < 0.01 µM and the TGI [9] was 1.29 µM. The GI50 [10] was < 0.01 µM, the TGI [10] was 0.0152 µM and the GI50 [11] was 0.0147 µM. For the same compound, the TGI [11] was 4.94 µM, the GI50 [12] was < 0.01 µM and the TGI [12] was 0.072 µM. The GI50 [13] was 0.0493 µM, the GI50 [14] was < 0.01 µM and the TGI [14] was 1.92 µM. For the same compound, the GI50 [15] was 0.0794 µM, the TGI [15] was 4.73 µM and the GI50 [16] was 0.0658 µM. For the same compound, the TGI [16] was 4.57 µM, the GI50 [17] was < 0.01 µM and the GI50 [18] was 0.178 µM. The TGI [18] was 5.94 µM, the GI50 [19] was 0.0375 µM and the TGI [19] was 1.82 µM. The GI50 [20] was < 0.01 µM, the TGI [20] was 0.0372 µM and the GI50 [21] was 0.0205 µM. The TGI [21] was 0.0569 µM, the GI50 [22] was < 0.01 µM and the TGI [22] was 0.184 µM. The GI50 [23] was < 0.01 µM, the TGI [23] was < 0.0127 µM and the GI50 [24] was < 0.0114 µM. The TGI [24] was 0.0951 µM, the GI50 [25] was < 0.01 µM and the TGI [25] was < 0.0116 µM. It also gave a GI50 [26] of 0.0333 µM, a TGI [26] of 15.4 µM and a GI50 [27] of 1.32 µM. For the same compound, the TGI [27] was 15.8 µM, the GI50 [28] was < 0.0118 µM and the TGI [28] was 2.06 µM. The GI50 [29] was 0.0252 µM, the TGI [29] was 1.13 µM and the GI50 [30] was 0.0201 µM. For the same compound, the TGI [30] was 0.528 µM, the GI50 [31] was 0.0163 µM and the TGI [31] was 3.2 µM. The GI50 [32] was < 0.01 µM, the TGI [32] was 3.15 µM and the GI50 [33] was < 0.01 µM. The TGI [33] was 0.0699 µM, the GI50 [34] was 0.0292 µM and the TGI [34] was 5.57 µM. The GI50 [35] was 0.0361 µM, the TGI [35] was 2.76 µM and the GI50 [36] was < 0.01 µM. It also gave a TGI [36] of 1.82 µM, a GI50 [37] of 0.135 µM and a TGI [37] of 12.5 µM. For the same compound, the GI50 [38] was < 0.01 µM, the TGI [38] was 0.015 µM and the GI50 [39] was < 0.01 µM. The TGI [39] was 0.0244 µM, the GI50 [40] was 0.354 µM and the TGI [40] was 2.18 µM. The GI50 [41] was < 0.0124 µM, the GI50 [42] was < 0.01 µM and the TGI [42] was > 100 µM. For the same compound, the GI50 [43] was 0.0295 µM, the TGI [43] was 2.09 µM and the GI50 [44] was 0.0758 µM. The TGI [44] was 1.75 µM, the GI50 [45] was < 0.01 µM and the TGI [45] was 0.0235 µM. For the same compound, the GI50 [46] was 0.151 µM, the TGI [46] was 0.929 µM and the GI50 [47] was < 0.01 µM. It also gave a TGI [47] of 2.21 µM, a GI50 [48] of 0.0167 µM and a TGI [48] of 0.0698 µM. The GI50 [49] was 0.94 µM and the TGI [49] was 3.99 µM.
